Several values for one entry are separate records, joined by “and”; a condition that tells them apart may be missing. Equal entries are not always repeated. Where two headings read alike, the source gives them in different places.
Key:
[1] = tested on: p-sites in DNA-damaged AsPC-1 cells; test: decryptM dose-resolved phosphoproteomics of ATRi in GEM-pre-treated cells; assay type: cell-based, human; conditions: for EC50: Homo sapiens, ASPC1
Description: Cell culture medium was replaced 24 h after seeding. […] For time point 0, AsPC-1 cells were treated with a vehicle and lysed immediately. The final DMSO concentration in all experiments was 0.2%.
Briefly, cells were washed twice with PBS and lysed in SDS lysis buffer (2% SDS in 40 mM Tris-HCl, pH 7.6), followed by sonication for 10 min (30 s on/30 s off) using a Bioruptor (Diagenode). For DNA hydrolysis, samples were boiled at 95 °C for 10 min and incubated with 2% trifluoroacetic acid (TFA) for 1 min, before the reaction was quenched using 4% N-methylmorpholine. Lysate was cleared by centrifugation at 11,000 × g for 5 min and protein concentration was determined using the Pierce BCA Protein Assay Kit (Thermo Scientific).
Using 70% ethanol, samples were then precipitated on beads, followed by washing thrice with 80% ethanol and once with 100% acetonitrile. Subsequently, proteins were reduced and alkylated using 10 mM TCEP, 50 mM chloroacetamide, and 2 mM CaCl2 in 100 mM EPPS/NaOH, pH 8.5 for 1 h at 37 °C, followed by tryptic digestion at 37 °C for 16 h. Peptides were acidified with 1% TFA and desalted on Chromabond HLB plates (30 µm particle size, 10 mg capacity, Machery-Nagel), using 0.1% TFA for equilibration and sample loading, and 0.1% TFA in 70% acetonitrile for peptide elution. Recovered peptides were freeze-dried by vacuum-centrifugation and stored at −20 °C.
Depending on the experiment, samples were either labeled with TMT-11plex (decryptM), TMT-10plex (non-decryptM, quadruplicates), or TMTpro reagent (time-series; all Thermo Scientific). Therefore, dried peptides were reconstituted in 15 µl 100 mM EPPS, pH 8.5 and each treatment condition was labeled with one channel of the respective TMT reagent (5 µl of 25 µg/µl reagent, Appendix Tables S4–S6). The reaction was incubated for 1 h at 23 °C and subsequently quenched with 0.4% hydroxylamine. Then, samples were pooled, acidified with 1% formic acid, and freeze-dried by vacuum-centrifugation. Labeled peptide pools were desalted on C18 Sep-Pak cartridges (37–55 µm particle size, 50 mg capacity, Waters), using 0.1% formic acid as equilibration solvent, and 0.1% formic acid in 60% acetonitrile was used as elution solvent. Eluted peptides were freeze-dried and stored at −20 °C until further use.
Basic reversed-phase (bRP) fractionation of peptides was performed on a Vanquish HPLC (Thermo Scientific). In short, dried peptides were reconstituted in 200 µl 25 mM ammonium bicarbonate, pH 8.0 and directly injected onto a Waters BEH130 XBridge C18 column (3.5 µm, 4.6 × 250 mm). […] Using an automated fraction collector, 96 fractions were collected between min 7 and 55 after injection. Fractions were acidified with 1% formic acid and pooled to 48 fractions, before they were freeze-dried and stored at −20 °C.
Immobilized metal ion affinity chromatography (IMAC) enrichment of phosphorylated peptides was performed on the Bravo automated liquid handling platform using AssayMAP Fe(III)-NTA cartridges (Agilent). In brief, the 48 dried peptide fractions were reconstituted in 0.1% TFA in 80% acetonitrile and further pooled to 12 fractions (200 µl final volume per well). The phosphopeptide enrichment protocol embedded in the Agilent AssayMAP Bravo Protein Sample Prep Workbench v2.0 software was run. Thereby, the cartridges were first primed with 150 μl 0.1% TFA in acetonitrile at 300 μl/min, and equilibrated with 150 μl 0.1% TFA in 80% acetonitrile at 10 μl/min. Then, pooled fractions were loaded at 5 µl/min and further washed three times with 150 μl 0.1% TFA in 80% acetonitrile at 50 μl/min. Enriched peptides were eluted with 60 μl 1% ammonium hydroxide at 5 μl/min.

PANC-1 cells = test: Cell proliferation assay, GEM + ATR inhibitor (Incucyte confluence, 72 h); conditions: for EC50: Homo sapiens, mean of replicates; for Curve top: PANC-1, plateau of fitted curve, ratio drug/vehicle confluence;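 as to EC50: in combination experiments GEM is titrated while ATRi is held at a fixed sub-EC50 dose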;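 as to all read-outs here: PANC-1 confluence at 72 h taken as raw values, not normalized to starting confluence, with each experiment run in triplicate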
Description: Cells were seeded at 5000 cells/well into 96-well flat bottom plates (Eppendorf) and allowed to attach overnight. […] Cells were incubated for 72 h at 37 °C and 5% CO2. Cell confluence readouts at 72 h were either normalized to their initial confluence using the Incucyte software (AsPC-1) or used without prior normalization (all others). […] Each experiment was performed in triplicates, the data was plotted as mean ± standard deviation (s.d.).

EC50 (PANC-1 cells; PANC-1, 72 h, read-out: EC50 mean [nM], PANC-1, experiment ATRi (ATR inhibitor alone)): 10500 nM
EC50 (PANC-1 cells; PANC-1, read-out: EC50 mean [nM], PANC-1, experiment ATRi (ATR inhibitor alone)): 10500 nM
EC50 (PANC-1 cells; PANC-1, read-out: EC50 mean [nM], PANC-1, experiment GEM+ATRi_dose1): 12 nM
EC50 (PANC-1 cells; PANC-1, read-out: EC50 mean [nM], PANC-1, experiment GEM+ATRi_dose2): 22 nM
EC50 (PANC-1 cells; PANC-1, read-out: EC50 mean [nM], PANC-1, experiment GEM+ATRi_dose3): 14.5 nM
SMILES: C[C@@H]1COCCN1c1cc(C2([S@](C)(=N)=O)CC2)nc(-c2cc[nH]c3nccc2-3)n1 [Ceralasertib]
Log2 PTM response (GEM+ATRi vs. GEM) ([1]; AASDHPPT-pS258): -0.9
Log2 PTM response (GEM+ATRi vs. GEM) ([1]; BRCA1-pS1239): -1.1
Log2 PTM response (GEM+ATRi vs. GEM) ([1]; BRD8-pS621): -1.7
Log2 PTM response (GEM+ATRi vs. GEM) ([1]; CDKN2AIP-pS198): -1.6
Log2 PTM response (GEM+ATRi vs. GEM) ([1]; CHEK1-pS317): -2
Log2 PTM response (GEM+ATRi vs. GEM) ([1]; CHEK1-pS468): -3.8
Log2 PTM response (GEM+ATRi vs. GEM) ([1]; DHX9-pS321): -1.6
Log2 PTM response (GEM+ATRi vs. GEM) ([1]; EXO1-pS714): -0.7
Log2 PTM response (GEM+ATRi vs. GEM) ([1]; FANCD2-pS319): -1.3
Log2 PTM response (GEM+ATRi vs. GEM) ([1]; HDGF-pS103): -1.4
Log2 PTM response (GEM+ATRi vs. GEM) ([1]; HMGA1-pS9): -2
Log2 PTM response (GEM+ATRi vs. GEM) ([1]; HMGA1-pS36;S44): -1.5
Log2 PTM response (GEM+ATRi vs. GEM) ([1]; HMGA1-pS44): -1.7
Log2 PTM response (GEM+ATRi vs. GEM) ([1]; HSPA4-pS552): -1.1
Log2 PTM response (GEM+ATRi vs. GEM) ([1]; HTATSF1-pS481): -0.6
EC50 ([1]; approximate, from density plot Fig. 4C (peer review file), read-out: EC50 of the majority of pSQ/pTQ sites): ~0.1 µM
EC50 ([1]; approximate, from density plot Fig. 4C (peer review file), read-out: pEC50 of the majority of pSQ/pTQ sites (converted)): ~0.1 µM
EC50 ([1]; p-site dose-response in GEM-pre-treated cells, read-out: EC50, RALY S176): 0.151 µM
EC50 ([1]; p-site dose-response in GEM-pre-treated cells, read-out: pEC50, RALY S176 (converted)): 0.151 µM
EC50 ([1]; read-out: median EC50 across all drug-regulated pSQ/pTQ-sites): 0.154 µM
Log2 PTM response (GEM+ATRi vs. GEM) ([1]; LRRC42-pS385): -2.5
Log2 PTM response (GEM+ATRi vs. GEM) ([1]; NBN-pS397): -1.2
Log2 PTM response (GEM+ATRi vs. GEM) ([1]; NBN-pS615): -0.5
Log2 PTM response (GEM+ATRi vs. GEM) ([1]; NSUN5-pS432): -3
Log2 PTM response (GEM+ATRi vs. GEM) ([1]; PELP1-pS1033): -1.3
Log2 PTM response (GEM+ATRi vs. GEM) ([1]; PHF14-pS294): -1.2
Log2 PTM response (GEM+ATRi vs. GEM) ([1]; PPM1G-pS201): -1.9
Log2 PTM response (GEM+ATRi vs. GEM) ([1]; PPP6R3-pS825): -1.6
Log2 PTM response (GEM+ATRi vs. GEM) ([1]; PSMD4-pS266): -1.3
Log2 PTM response (GEM+ATRi vs. GEM) ([1]; RAD18-pS368): -1.2
Log2 PTM response (GEM+ATRi vs. GEM) ([1]; RIF1-pS1873): -0.6
Log2 PTM response (GEM+ATRi vs. GEM) ([1]; SNRPA-pS115): -1.4
Log2 PTM response (GEM+ATRi vs. GEM) ([1]; TCEA1-pS100;S97): -2.1
Log2 PTM response (GEM+ATRi vs. GEM) ([1]; TCEB3-pS251): -1.6
Log2 PTM response (GEM+ATRi vs. GEM) ([1]; THAP4-pS186): -1.4
Log2 PTM response (GEM+ATRi vs. GEM) ([1]; TOPBP1-pS1504): -1.5
Log2 PTM response (GEM+ATRi vs. GEM) ([1]; TSEN34-pS136): -1.1
Log2 PTM response (GEM+ATRi vs. GEM) ([1]; UHRF1-pS393): -1.4
Log2 PTM response (GEM+ATRi vs. GEM) ([1]; UIMC1-pS171): -2.1
Log2 PTM response (GEM+ATRi vs. GEM) ([1]; ZC3H14-pS135): -1.3
ATRi Regulation (Curve), RALY S176 ([1]; classified by CurveCurator): down
PTM response (norm. to 1 µM GEM) ([1]; source data 4B (p-site not named), 1 µM GEM + ATRi 1 nM): 1.20
PTM response (norm. to 1 µM GEM) ([1]; source data 4B (p-site not named), 1 µM GEM + ATRi 3 nM): 0.93
PTM response (norm. to 1 µM GEM) ([1]; source data 4B (p-site not named), 1 µM GEM + ATRi 30 nM): 0.96
PTM response (norm. to 1 µM GEM) ([1]; source data 4B (p-site not named), 1 µM GEM + ATRi 100 nM): 0.97
PTM response (norm. to 1 µM GEM) ([1]; source data 4B (p-site not named), 1 µM GEM + ATRi 300 nM): 0.85
PTM response (norm. to 1 µM GEM) ([1]; source data 4B (p-site not named), 1 µM GEM + ATRi 1000 nM): 0.52
PTM response (norm. to 1 µM GEM) ([1]; source data 4B (p-site not named), 1 µM GEM + ATRi 3000 nM): 0.35
PTM response (norm. to 1 µM GEM) ([1]; source data 4B (p-site not named), 1 µM GEM + ATRi 10000 nM): 0.27
PTM response (norm. to 1 µM GEM) ([1]; source data 5B (p-site not named), 1 µM GEM + ATRi 3 nM): 0.78
PTM response (norm. to 1 µM GEM) ([1]; source data 5B (p-site not named), 1 µM GEM + ATRi 10 nM): 0.81
PTM response (norm. to 1 µM GEM) ([1]; source data 5B (p-site not named), 1 µM GEM + ATRi 30 nM): 0.67
PTM response (norm. to 1 µM GEM) ([1]; source data 5B (p-site not named), 1 µM GEM + ATRi 100 nM): 0.51
PTM response (norm. to 1 µM GEM) ([1]; source data 5B (p-site not named), 1 µM GEM + ATRi 300 nM): 0.34
PTM response (norm. to 1 µM GEM) ([1]; source data 5B (p-site not named), 1 µM GEM + ATRi 1000 nM): 0.16
PTM response (norm. to 1 µM GEM) ([1]; source data 5B (p-site not named), 1 µM GEM + ATRi 3000 nM): 0.11
PTM response (norm. to 1 µM GEM) ([1]; source data 5B (p-site not named), 1 µM GEM + ATRi 10000 nM): 0.09
Curve top (PANC-1 cells; experiment GEM+ATRi_dose1): 0.75 and 0.55 and 0.69
Curve top (PANC-1 cells; experiment GEM+ATRi_dose2): 0.69 and 0.59 and 0.62
Curve top (PANC-1 cells; experiment GEM+ATRi_dose3): 0.55 and 0.43 and 0.50

— publication PMC11876601 (Molecular Systems Biology, 2025)
